In publication PMC4975316 (EJIFCC, 2011):

Target: T1, β2GPI (Homo sapiens, UniProt P02749)
T1 sequence (P02749 20-345): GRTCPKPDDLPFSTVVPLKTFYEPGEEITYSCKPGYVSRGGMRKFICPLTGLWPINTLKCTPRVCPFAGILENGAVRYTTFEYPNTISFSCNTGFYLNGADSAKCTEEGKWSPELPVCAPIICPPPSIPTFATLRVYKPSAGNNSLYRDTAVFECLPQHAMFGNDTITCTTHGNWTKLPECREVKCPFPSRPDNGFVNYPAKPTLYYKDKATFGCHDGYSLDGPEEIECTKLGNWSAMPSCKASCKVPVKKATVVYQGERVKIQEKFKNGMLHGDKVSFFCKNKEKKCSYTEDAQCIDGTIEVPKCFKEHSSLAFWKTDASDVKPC
Test: Surface plasmon resonance
Type: binding
Details: inferred from extremely fast dissociation; 0.005% PBST pH 7.4, 25°C

Question: Which “Affinity towards β2GPI indicated by dissociation (SPR)” value does the source give for KVWTIPRGGGS here?
Answer: Its value is “low affinity towards β2GPI”.
